≈ marks a conversion by molar mass, not a printed value.
tested on: Aeromonas hydrophila; test: In-vitro antibacterial activity, MIC by broth dilution; format: cell-based; details: Aeromonas hydrophila, 24 h, read-out: MIC values Aeromonas hydrophila
Experimental: (§1) All test compounds were dissolved in dimethyl sulfoxide (DMSO, Sigma, USA) and then diluted in Dulbecco’s modified Eagle’s medium (DMEM, Gibco, USA) at desired concentrations for cell proliferation analyses or diluted in nutrient broth medium for antimicrobial susceptibility testing respectively. The final concentration of DMSO in the DMEM culture medium was under 0.1% (v:v).
(§2) The preliminary antibacterial activities were obtained for selected compounds against various bacteria, namely: Staphyloccocus aureus ATCC25923 (Gram-positive bacteria), Clostridium perfringen CVCC52,8604 (anaerobes bacteria), Salmonella pullorum (Gram-negative bacteria), Escherichia coli ATCC25922 (Gram negative bacteria) and Aeromonas hydrophila (Gram-negative bacteria) were used in the study. Each strain was cultured in appropriate broth medium. Clostridium perfringen was incubated in an anaerobic chamber. The minimum inhibitory concentration (MIC) for each test compound was estimated using the broth dilution method. The MIC’s was determined for each strain/compound pairs that presented antimicrobial activity. The method was modified from Mohapatra›s methods ([14], [15]). Cell suspensions were prepared in 2 mL of liquid medium with concentrations of various tests of compounds in 15 mL culture tubes by inoculation with 100 μL of 10^6 cfu/mL from each stock. The cultures were incubated at 28 °C or 37 °C for 24 h. Tubes showing no visible turbidity represented the MIC, and subsequently, were inoculated on the right side of the 9cm sterile nutrient agar plates without various test compounds and incubated for 24 h (Clostridium perfringen was incubated in an anaerobic chamber.). The least concentration, at which no growth was observed, represented the minimum bactericidal concentration (MBC) ([16]).

Structure (SMILES)	MIC [µg/mL]
Cc1c[n+]([O-])c2ccccc2[n+]1[O-] [Compound 11, 3-methyl-quinoxaline-1,4-dioxide]	225 (≈ 1280 µM)

same assay, conditions: Aeromonas hydrophila; broth dilution, 24 h; read-out: MIC values Aeromonas hydrophila

Structure (SMILES)	MIC [µg/mL]
Cc1c(C(=O)C=Cc2ccccc2)[n+]([O-])c2ccccc2[n+]1[O-] [Compound 3a, 3-Methyl-2-(3-phenyl-2-propenoyl)-quinoxaline-1,4-dioxide, reference compound]	49 (≈ 160 µM)
Cc1c(C(=O)/C=C/c2ccc([N+](=O)[O-])cc2)[n+]([O-])c2ccccc2[n+]1[O-] [Compound 3e]	112 (≈ 320 µM)
Cc1c(C(=O)/C=C/c2ccccc2O)[n+]([O-])c2ccccc2[n+]1[O-] [Compound 3c]	103 (≈ 320 µM)

tested on: Escherichia coli ATCC25922; test: as above; format: cell-based; details: Escherichia coli, ATCC25922, 24 h, read-out: MIC values Escherichia coli ATCC25922
Experimental: as §1, §2

Structure (SMILES)	MIC [µg/mL]
Cc1c(C(=O)/C=C/c2ccc([N+](=O)[O-])cc2)[n+]([O-])c2ccccc2[n+]1[O-] [Compound 3e]	449 (≈ 1280 µM)

same assay, conditions: Escherichia coli, ATCC25922; broth dilution, 24 h; read-out: MIC values Escherichia coli ATCC25922

Structure (SMILES)	MIC [µg/mL]
Cc1c[n+]([O-])c2ccccc2[n+]1[O-] [Compound 11, 3-methyl-quinoxaline-1,4-dioxide]	56.3 (≈ 320 µM)
Cc1c(C(=O)C=Cc2ccccc2)[n+]([O-])c2ccccc2[n+]1[O-] [Compound 3a, 3-Methyl-2-(3-phenyl-2-propenoyl)-quinoxaline-1,4-dioxide, reference compound]	97.9 (≈ 320 µM)
Cc1c(C(=O)/C=C/c2ccccc2O)[n+]([O-])c2ccccc2[n+]1[O-] [Compound 3c]	103 (≈ 320 µM)

tested on: Salmonella pullorum; test: as above; format: cell-based; details: Salmonella enterica, PULLORUM, 24 h
Experimental: as §1, §2

Structure (SMILES)	MIC [µg/mL]
Cc1c[n+]([O-])c2ccccc2[n+]1[O-] [Compound 11, 3-methyl-quinoxaline-1,4-dioxide]	451 (≈ 2560 µM)
Cc1c(C(=O)C=Cc2ccccc2)[n+]([O-])c2ccccc2[n+]1[O-] [Compound 3a, 3-Methyl-2-(3-phenyl-2-propenoyl)-quinoxaline-1,4-dioxide, reference compound]	49 (≈ 160 µM)
Cc1c(C(=O)/C=C/c2ccc([N+](=O)[O-])cc2)[n+]([O-])c2ccccc2[n+]1[O-] [Compound 3e]	225 (≈ 639 µM)
Cc1c(C(=O)/C=C/c2ccccc2O)[n+]([O-])c2ccccc2[n+]1[O-] [Compound 3c]	103 (≈ 320 µM)

tested on: Staphyloccocus aureus ATCC25923; test: as above; format: cell-based; details: 24 h, read-out: MIC values Staphyloccocus aureus ATCC25923
Experimental: as §1, §2

Structure (SMILES)	MIC [µg/mL]
Cc1c(C(=O)/C=C/c2ccc([N+](=O)[O-])cc2)[n+]([O-])c2ccccc2[n+]1[O-] [Compound 3e]	449 (≈ 1280 µM)
Cc1c(C(=O)/C=C/c2ccccc2O)[n+]([O-])c2ccccc2[n+]1[O-] [Compound 3c]	25.8 (≈ 79.9 µM)

same assay, conditions: broth dilution, 24 h; read-out: MIC values Staphyloccocus aureus ATCC25923

Structure (SMILES)	MIC [µg/mL]
Cc1c[n+]([O-])c2ccccc2[n+]1[O-] [Compound 11, 3-methyl-quinoxaline-1,4-dioxide]	451 (≈ 2560 µM)
Cc1c(C(=O)C=Cc2ccccc2)[n+]([O-])c2ccccc2[n+]1[O-] [Compound 3a, 3-Methyl-2-(3-phenyl-2-propenoyl)-quinoxaline-1,4-dioxide, reference compound]	24.5 (≈ 79.9 µM)

tested on: Clostridium perfringen CVCC52,8604; test: In-vitro antibacterial activity, MIC by broth dilution (anaerobic chamber); format: cell-based; details: Clostridium, 24 h
Experimental: as §1, §2

Structure (SMILES)	MIC [µg/mL]
Cc1c[n+]([O-])c2ccccc2[n+]1[O-] [Compound 11, 3-methyl-quinoxaline-1,4-dioxide]	225 (≈ 1280 µM)
Cc1c(C(=O)C=Cc2ccccc2)[n+]([O-])c2ccccc2[n+]1[O-] [Compound 3a, 3-Methyl-2-(3-phenyl-2-propenoyl)-quinoxaline-1,4-dioxide, reference compound]	196 (≈ 639 µM)
Cc1c(C(=O)/C=C/c2ccc([N+](=O)[O-])cc2)[n+]([O-])c2ccccc2[n+]1[O-] [Compound 3e]	449 (≈ 1280 µM)
Cc1c(C(=O)/C=C/c2ccccc2O)[n+]([O-])c2ccccc2[n+]1[O-] [Compound 3c]	25.8 (≈ 79.9 µM)

tested on: HepG2 cells; test: In-vitro cytotoxicity, MTT cell proliferation assay; format: cell-based, human; details: 24 h incubation, concentration reducing viable cells by 50%
Experimental: as §1
(§3) HepG2 and normal human Chang liver cells were obtained from the Institute of Biochemistry and Cell Biology, Shanghai Institutes for Biological Sciences, Chinese Academy of Sciences (Shanghai, China). HepG2 and normal human Chang liver cells were cultured at 37˚Cwith 5% CO2 in DMEM supplemented with 2% L-glutamine, 10% fetal bovine serum (Gibco, USA), 100 U/mL penicillin and 100 […] (Gibco, USA).
(§4) The methodology for evaluating the cytotoxicity inhibitory activity of various test compounds towards cell proliferation has been described previously ([11], [17]). Cell proliferation inhibitory analyses were carried out using the 3-(4,5-dimethylthiazole-2-yl)-2,5-diphenyl tetrazolium bromide (MTT, Sigma, USA) assay. Briefly, cancers HepG2 and normal human Chang liver cells were harvested and resuspended in fresh growth medium. A 100 μL cell suspension (5 × 10^4 cells/mL) was aliquoted into each well of a 96-well culture plate. After 12 h incubation, the medium was replaced with fresh medium containing various concentrations of test compounds. The cells were then incubated for another 24 h. At the end of exposure, 10 μL of MTT solution (5 mg/mL) was added, and the cells were incubated for 4 h at 37 °C. The cells were treated with 100 μL DMSO, and absorbance was recorded at 570 nm using a microplate ELISA reader (ELX800, Bio-Tek, USA). All experiments were performed at least thrice, and data were presented as the mean of sixplicate wells ± standard deviation (SD). Cell inhibition was calculated as follows:
(§5) (OD of control group − OD of experimental group) / (OD of control group − OD of blank group) ×100%. The IC50 value for a compound was calculated using SPSS.

Structure (SMILES)	IC50 [µM]
Cc1c(C(=O)C=Cc2ccccc2)[n+]([O-])c2ccccc2[n+]1[O-] [Compound 3a, 3-Methyl-2-(3-phenyl-2-propenoyl)-quinoxaline-1,4-dioxide, reference compound]	49.3 ± 1.94
Cc1c(C(=O)/C=C/c2ccccc2O)[n+]([O-])c2ccccc2[n+]1[O-] [Compound 3c]	102 ± 4.13

same assay, conditions: Homo sapiens, HepG2, 24 h, 24 h incubation, concentration reducing viable cells by 50%

Structure (SMILES)	IC50 [µM]
Cc1c[n+]([O-])c2ccccc2[n+]1[O-] [Compound 11, 3-methyl-quinoxaline-1,4-dioxide]	465 ± 28.8
Cc1c(C(=O)C=Cc2ccccc2)[n+]([O-])c2ccccc2[n+]1[O-] [Compound 3a, 3-Methyl-2-(3-phenyl-2-propenoyl)-quinoxaline-1,4-dioxide, reference compound]	49
Cc1c(C(=O)/C=C/c2ccc([N+](=O)[O-])cc2)[n+]([O-])c2ccccc2[n+]1[O-] [Compound 3e]	449 ± 19.4
Cc1c(C(=O)/C=C/c2ccccc2O)[n+]([O-])c2ccccc2[n+]1[O-] [Compound 3c]	102

tested on: normal human Chang liver cells; test: as above; format: cell-based; details: 24 h incubation, concentration reducing viable cells by 50%
Experimental: as §1, §3, §4, §5

Structure (SMILES)	IC50 [µM]
Cc1c(C(=O)C=Cc2ccccc2)[n+]([O-])c2ccccc2[n+]1[O-] [Compound 3a, 3-Methyl-2-(3-phenyl-2-propenoyl)-quinoxaline-1,4-dioxide, reference compound]	63.3 ± 5.55

same assay, conditions: Homo sapiens, Chang liver, 24 h, 24 h incubation, concentration reducing viable cells by 50%

Structure (SMILES)	IC50 [µM]
Cc1c[n+]([O-])c2ccccc2[n+]1[O-] [Compound 11, 3-methyl-quinoxaline-1,4-dioxide]	452 ± 6.86
Cc1c(C(=O)C=Cc2ccccc2)[n+]([O-])c2ccccc2[n+]1[O-] [Compound 3a, 3-Methyl-2-(3-phenyl-2-propenoyl)-quinoxaline-1,4-dioxide, reference compound]	63
Cc1c(C(=O)/C=C/c2ccc([N+](=O)[O-])cc2)[n+]([O-])c2ccccc2[n+]1[O-] [Compound 3e]	536 ± 22.9
Cc1c(C(=O)/C=C/c2ccccc2O)[n+]([O-])c2ccccc2[n+]1[O-] [Compound 3c]	192 ± 10.3

tested on: Gram-positive and Gram-negative bacteria; test: Antibacterial activity class based on the MIC results; format: cell-based; details: not given
Experimental: as §2
In this study, activity of quinoxaline-1, 4-dioxides and their deoxygenations was tested against selected Gram-negative bacteria (Escherichia coli, Salmonella pullorum and Aeromonas hydrophila), Gram-positive bacteria (Staphyloccocus aureus and Clostridium perfringen). The in-vitro antibacterial activity was based on the MIC results: Strong antibacterial activity, if MIC is less than 50 μg/mL; Moderate, if MIC is in between 50 and 250 μg/mL; No activity, if MIC is more than 500 μg/mL.

Structure (SMILES)	antibacterial activity against Gram-positive and Gram-negative bacteria
Cc1c[n+]([O-])c2ccccc2[n+]1[O-] [Compound 11, 3-methyl-quinoxaline-1,4-dioxide]	little or no activity
Cc1c(C(=O)C=Cc2ccccc2)[n+]([O-])c2ccccc2[n+]1[O-] [Compound 3a, 3-Methyl-2-(3-phenyl-2-propenoyl)-quinoxaline-1,4-dioxide, reference compound]	strong or moderate activity
Cc1c(C(=O)/C=C/c2ccc([N+](=O)[O-])cc2)[n+]([O-])c2ccccc2[n+]1[O-] [Compound 3e]	little or no activity
Cc1c(C(=O)/C=C/c2ccccc2O)[n+]([O-])c2ccccc2[n+]1[O-] [Compound 3c]	strong or moderate activity

tested on: HepG2 cells; test: Identification of metabolic pathways in HepG2 cells by LC-MS/MS; format: in vitro ADME, human; details: HepG2 cells incubated for 24 h
Experimental: For recognition of the metabolic characteristics of quinocetone (3a), deoxyquinocetone (5a), olaquindox, 3-methyl-2-(3-fura-2-propenoyl)-quinoxaline -1,4-dioxide 6, and 3-methyl -2-quinoxaline-2-carboxylate-1,4-dioxide 8, HepG2 cells were seeded at 6× 10^4 cells/ml density in 24-well plates. After 24 h incubation, the medium was replaced with fresh medium containing various concentrations ([…]) of test compounds. After 24 h incubation, the medium was collected and extracted with ethyl acetate then centrifuged at […] for 20min at 4 °C. The organic supernatant was evaporated under nitrogen atmosphere at 40 °C, the residue was dissolved in 200μL acetonitrile. The aliquot was filtered by a 0.22 μM membrane then analyzed. The blank is conducted in the absence of pharmaceuticals.
All experiments were performed with a Waters Alliance 2695 LC system (Waters) and a quattro micro API quadruple mass spectrometer (Micromass, Manchester, UK) equipped with an electro-spray ion source (ESI).
LC analysis was carried out on an XTerra C18 HPLC column (2.1 mm×100 mm, 3.5 μM) (Waters, Milford, MA, USA) equipped with a guard column (XTerra C18 2.1 mm×100 mm, 3.5μM) (Waters, Milford, MA, USA). […]
The MS instrument was used for analysis operating in a positive ion mode. […] The spectra was recorded in the range m/z 50~500 for full scan MS analysis. […]

Structure (SMILES)	categories of metabolites in HepG2 cells
Cc1c(C(=O)C=Cc2ccccc2)[n+]([O-])c2ccccc2[n+]1[O-] [Compound 3a, 3-Methyl-2-(3-phenyl-2-propenoyl)-quinoxaline-1,4-dioxide, reference compound]	reduction, hydroxylation, and a combination of reduction and hydroxylation

tested on: not given; test: not given; details: not given

Structure (SMILES)	melting point [°C]
Cc1c[n+]([O-])c2ccccc2[n+]1[O-] [Compound 11, 3-methyl-quinoxaline-1,4-dioxide]	173.5 to 176.8

tested on: HepG2, Vero, L-02 and Chang liver cell lines; test: not given; design: method as in PMID 19061932, PMID 22840332; details: in-vitro, ref [7],[11]; cited from earlier work

Structure (SMILES)	growth inhibitory effects
Cc1c(C(=O)C=Cc2ccccc2)[n+]([O-])c2ccccc2[n+]1[O-] [Compound 3a, 3-Methyl-2-(3-phenyl-2-propenoyl)-quinoxaline-1,4-dioxide, reference compound]	significant growth inhibitory effects
